What all share (experiment): relative viability (nuclei count vs DMSO), 5 days (fraction); higher = more cells survive
Compound in the experiment “AZ3146 + Lapatinib”: CN1CCC(CC1)OC2=CC(=C(C=C2)NC3=NC=C4C(=N3)N(C(=O)N4C)C5CCCC5)OC [AZ3146] + CS(=O)(=O)CCNCc1ccc(-c2ccc3ncnc(Nc4ccc(OCc5cccc(F)c5)c(Cl)c4)c3c2)o1 [Lapatinib] (partner 2 µM)
Put shortly: (§1)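 The day after seeding in 1536-well plates, lung cancer cell lines were treated by pin tool with a single drug, or with a fixed anchor-drug dose together with five library-drug doses (not always all listed) in √10 steps. After 5 days, a combined fix-and-stain solution (final 0.05% Triton X-100, 1% formaldehyde, 1 ug/ml Hoechst) was added. Nuclei counted on 4× images gave relative viability as treated counts over vehicle counts, reported as the median of duplicate plates.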

Compound in the experiment “GSK-J4 + Pictilisib”: CCOC(=O)CCNc1cc(N2CCc3ccccc3CC2)nc(-c2ccccn2)n1 [GSK-J4] + CS(=O)(=O)N1CCN(Cc2cc3nc(-c4cccc5[nH]ncc45)nc(N4CCOCC4)c3s2)CC1 [Pictilisib] (partner 1 µM)
Put shortly: as §1

Compound in the experiment “AZ3146 + Vorinostat”: CN1CCC(CC1)OC2=CC(=C(C=C2)NC3=NC=C4C(=N3)N(C(=O)N4C)C5CCCC5)OC [AZ3146] + O=C(CCCCCCC(=O)Nc1ccccc1)NO [Vorinostat] (partner 1 µM)
Put shortly: as §1

Compound in the experiment “AZ3146 + Foretinib”: CN1CCC(CC1)OC2=CC(=C(C=C2)NC3=NC=C4C(=N3)N(C(=O)N4C)C5CCCC5)OC [AZ3146] + COc1cc2c(Oc3ccc(NC(=O)C4(C(=O)Nc5ccc(F)cc5)CC4)cc3F)ccnc2cc1OCCCN1CCOCC1 [Foretinib] (partner 0.25 µM)
Put shortly:
as §1

As for UMC-11, the relative viability amounted to 0.793 with AZ3146 + Lapatinib (first compound 0.08 µM); 0.963 in the experiment with AZ3146 + Lapatinib (first compound 0.253 µM); 0.99 in the experiment with AZ3146 + Lapatinib (first compound 0.8 µM); 0.978 in the experiment with AZ3146 + Lapatinib (first compound 2.53 µM); 0.531 with AZ3146 + Lapatinib (first compound 8 µM); 0.739 with GSK-J4 + Pictilisib (first compound 0.5 µM). Also, the relative viability with GSK-J4 + Pictilisib (first compound 1.581 µM) amounted to 0.527; with GSK-J4 + Pictilisib (first compound 5 µM), 0.499; with GSK-J4 + Pictilisib (first compound 15.81 µM) it was 0.9; with GSK-J4 + Pictilisib (first compound 50 µM) it was 0.256; with AZ3146 + Vorinostat (first compound 0.08 µM), 0.299; in the experiment with AZ3146 + Vorinostat (first compound 0.253 µM), 0.389. The relative viability came to 0.406 in the experiment with AZ3146 + Vorinostat (first compound 0.8 µM); 0.267 in the experiment with AZ3146 + Vorinostat (first compound 2.53 µM); 0.175 with AZ3146 + Vorinostat (first compound 8 µM); 0.959 with AZ3146 + Foretinib (first compound 0.08 µM); 1.04 in the experiment with AZ3146 + Foretinib (first compound 0.253 µM); 1.11 with AZ3146 + Foretinib (first compound 0.8 µM). The relative viability amounted to 0.813 with AZ3146 + Foretinib (first compound 2.53 µM) and 0.261 with AZ3146 + Foretinib (first compound 8 µM).

Source of the values: the supplement of paper PMC10307832.
